# Data published in ChEMBL document CHEMBL5614443, “Hybrids of 3-Hydroxypyridin-4(1H)-ones and Long-Chain 4-Aminoquinolines as Potent Biofilm Inhibitors of Pseudomonas aeruginosa Potentiate Tobramycin and Polymyxin B Activity” (J Med Chem, 2024).
# Activity calls are given as the source filed them. The calls are words filed in the database; no cut-off is given here.
# How the values were obtained:
# Pseudomonas aeruginosa [1] = assay: Antibiofilm activity against Pseudomonas aeruginosa PAO1 assessed as inhibition of biofilm formation incubated for 24 hrs by crystal violet staining based analysis; type: functional, organism-based; settings: PAO1, 24 h
# Pseudomonas aeruginosa [2] = assay: Antibacterial activity against Pseudomonas aeruginosa PAO1 assessed as inhibition of bacterial growth incubated for 24 hrs by CLSI protocol based method; type: functional
# Pseudomonas aeruginosa [3] = assay: Antibacterial activity against Pseudomonas aeruginosa PAO1 infected in Caenorhabditis elegans assessed as reduction in worm mortality by measuring survival at 1/2 MIC by bright-field microscopic analysis (reference value: 24 hrs); type: functional
# Pseudomonas aeruginosa [4] = assay: Antibacterial activity against Pseudomonas aeruginosa PAO1 assessed as bacterial survival rate at 1/2 MIC incubated for 24 hrs by LB agar plate method relative to control; type: functional
# Pseudomonas aeruginosa [5] = assay: Induction of Fe3+ chelating activity in Pseudomonas aeruginosa PAO1 assessed as increase in pyoverdine production at 2.5 to 50 uM incubated for 24 hrs by fluorescence microplate reader; settings: dose 2.5-50 µM
# [6] = Inhibition of quorum sensing system in wildtype Pseudomonas aeruginosa PAO1 assessed as inhibition of pyocyanin production incubated for 24 hrs by absorbance based analysis
# [7] = Hemolytic activity in rabbit erythrocytes assessed as hemolysis rate at 200 uM incubated for 2 hrs by microplate reader analysis (reference value: 100 %); type: toxicity, cell-based, Oryctolagus cuniculus, Erythrocyte; settings: read-out: Activity
# [8] = Inhibition of quorum sensing system in wildtype Pseudomonas aeruginosa PAO1 assessed as inhibition of rhamnolipid production incubated for 24 hrs by absorbance based microtiter plate reader analysis
# [9] = Cytotoxicity against African green monkey Vero cells assessed as reduction in cell viability incubated for 24 hrs by MTT assay; type: toxicity, cell-based; settings: chlorocebus sabaeus
# Pseudomonas aeruginosa [10] = assay: Induction of Fe3+ chelating activity in Pseudomonas aeruginosa PAO1 assessed as increase in pyochelin production at 2.5 to 50 uM incubated for 24 hrs by fluorescence microplate reader; settings: dose 2.5-50 µM
# [11] = Inhibition of quorum sensing system in wildtype Pseudomonas aeruginosa PAO1 assessed as inhibition of elastase production incubated for 24 hrs by elastin-congo red dye based absorbance assay
# [12] = Toxicity in Caenorhabditis elegans assessed as effect on survival at 100 uM measured at 48 hrs by bright-field microscopic analysis
# Pseudomonas aeruginosa [13] = assay: Antibiofilm activity against Pseudomonas aeruginosa PAO1 assessed as decrease in biofilm formation incubated for 24 hrs by LIVE/DEAD BacLight staining based 3D confocal laser scanning microscopy; type: functional, organism-based; settings: dose 1-10 µM
# Pseudomonas aeruginosa [14] = assay: Antibacterial activity against Pseudomonas aeruginosa PAO1 assessed as inhibition of bacterial growth at 0.1 to 50 uM measured upto 24 hrs by CLSI protocol based method; type: functional, organism-based; settings: dose 0.1-50 µM
# [15] = Metal chelating activity assessed as Fe3+ chelation by measuring iron chelation constant by fluorescence competition assay
molecule,measurement,setting,value
CC[C@H]1OC(=O)[C@H](C)[C@@H](O[C@H]2C[C@@](C)(OC)[C@@H](O)[C@H](C)O2)[C@H](C)[C@@H](O[C@@H]2O[C@H](C)C[C@H](N(C)C)[C@H]2O)[C@](C)(O)C[C@@H](C)CN(C)[C@H](C)[C@@H](O)[C@]1(C)O [AZITHROMYCIN],IC50,Pseudomonas aeruginosa [1],6.6 µM
Cc1cc(=O)c(O)c(CNCCCCCCCCNc2ccnc3ccccc23)n1C,IC50,Pseudomonas aeruginosa [1],8.1 µM
same,MIC,Pseudomonas aeruginosa [2],≥ 512 µM
Cc1cc(=O)c(O)c(CNCCCCCCCCNc2ccnc3cccc(Cl)c23)n1C,IC50,Pseudomonas aeruginosa [1],> 50 µM
same,MIC,Pseudomonas aeruginosa [2],≥ 512 µM
Cc1cc(=O)c(O)c(CNCCCCCCCCNc2ccnc3ccc(Cl)cc23)n1C,IC50,Pseudomonas aeruginosa [1],18.3 µM
same,MIC,Pseudomonas aeruginosa [2],≥ 512 µM
Cc1cc(=O)c(O)cn1CCCCCCCCNc1ccnc2cc(Cl)ccc12,IC50,Pseudomonas aeruginosa [1],25.6 µM
same,MIC,Pseudomonas aeruginosa [2],≥ 512 µM
POLYMYXIN B,Survival,Pseudomonas aeruginosa [3],88 h
same,Survival,Pseudomonas aeruginosa [4],18%
Cc1cc(=O)c(O)c(CNCCCCCCCCCCNc2ccnc3ccccc23)n1C,IC50,Pseudomonas aeruginosa [1],32.6 µM
same,MIC,Pseudomonas aeruginosa [2],≥ 512 µM
Cc1cc(=O)c(O)c(CNCCCCCCCCNc2ccnc(Cl)c2)n1C,IC50,Pseudomonas aeruginosa [1],> 50 µM
same,MIC,Pseudomonas aeruginosa [2],≥ 512 µM
Cn1cc(O)c(=O)cc1CNCCCCCCCCNc1ccnc2cc(Cl)ccc12,IC50,Pseudomonas aeruginosa [1],> 50 µM
same,MIC,Pseudomonas aeruginosa [2],≥ 512 µM
Cn1cc(O)c(=O)cc1CNCCCCCCCCNc1ccnc2ccccc12,IC50,Pseudomonas aeruginosa [1],> 50 µM
same,MIC,Pseudomonas aeruginosa [2],≥ 512 µM
NC[C@H]1O[C@H](O[C@H]2[C@H](O)[C@@H](O[C@H]3O[C@H](CO)[C@@H](O)[C@H](N)[C@H]3O)[C@H](N)C[C@@H]2N)[C@H](N)C[C@@H]1O [TOBRAMYCIN],Survival,Pseudomonas aeruginosa [3],72 h
same,Survival,Pseudomonas aeruginosa [4],~20%
Cc1cc(=O)c(O)c(CNCCCCCCCCNc2ccnc3cc(Br)ccc23)n1C,IC50,Pseudomonas aeruginosa [1],> 50 µM
same,MIC,Pseudomonas aeruginosa [2],≥ 512 µM
Cc1cc(=O)c(O)c(CNCCCCCCNc2ccnc3ccccc23)n1C,IC50,Pseudomonas aeruginosa [1],16.2 µM
same,MIC,Pseudomonas aeruginosa [2],≥ 512 µM
COc1ccc2c(NCCCCCCCCNCc3cc(=O)c(O)cn3C)ccnc2c1,IC50,Pseudomonas aeruginosa [1],> 50 µM
same,MIC,Pseudomonas aeruginosa [2],≥ 512 µM
Cc1cc(=O)c(O)c(CNCCCCCCCCNc2ccnc3c(Cl)cccc23)n1C,IC50,Pseudomonas aeruginosa [1],> 50 µM
same,MIC,Pseudomonas aeruginosa [2],≥ 512 µM
Cc1cc(=O)c(O)c(CNCCCCCNc2ccnc3ccccc23)n1C,IC50,Pseudomonas aeruginosa [1],> 50 µM
same,MIC,Pseudomonas aeruginosa [2],≥ 512 µM
Cc1cc(=O)c(O)c(CNCCCNc2ccnc3ccccc23)n1C,IC50,Pseudomonas aeruginosa [1],> 50 µM
same,MIC,Pseudomonas aeruginosa [2],≥ 512 µM
CCCCn1c(C)cc(=O)c(O)c1CNCCCCCCCCNc1ccnc2cc(Cl)ccc12,IC50,Pseudomonas aeruginosa [1],14.1 µM
same,MIC,Pseudomonas aeruginosa [2],≥ 512 µM
Cc1cc(=O)c(O)c(CNCCCCCCCCNc2ccnc3cc(C(F)(F)F)ccc23)n1C,IC50,Pseudomonas aeruginosa [1],12.9 µM
same,MIC,Pseudomonas aeruginosa [2],≥ 512 µM
Cc1cc(=O)c(O)c(CNCCNc2ccnc3ccccc23)n1C,IC50,Pseudomonas aeruginosa [1],> 50 µM
same,MIC,Pseudomonas aeruginosa [2],≥ 512 µM
CCCCCCCc1[nH]c2ccccc2c(=O)c1O,Activity,Pseudomonas aeruginosa [5],Active
Cc1cc(=O)c(O)c(CNCCCCCCCNc2ccnc3cc(Cl)ccc23)n1C,IC50,Pseudomonas aeruginosa [1],9.4 µM
same,MIC,Pseudomonas aeruginosa [2],≥ 512 µM
O=c1cc(CNCCCCCCCCNc2ccnc3ccccc23)n(O)cc1O,IC50,Pseudomonas aeruginosa [1],> 50 µM
same,MIC,Pseudomonas aeruginosa [2],≥ 512 µM
CCCCn1c(C)cc(=O)c(O)c1CNCCCCCCCCNc1ccnc2ccccc12,IC50,Pseudomonas aeruginosa [1],8.9 µM
same,MIC,Pseudomonas aeruginosa [2],≥ 512 µM
COc1ccc2c(NCCCCCCCCNCc3c(O)c(=O)cc(C)n3C)ccnc2c1,IC50,Pseudomonas aeruginosa [1],16 µM
same,MIC,Pseudomonas aeruginosa [2],≥ 512 µM
NCCCCCCCCNc1ccnc2cc(Cl)ccc12,IC50,[6],> 50 µM
same,"hemolysis at 2 h, 200 µM",[7],< 1.5%
same,IC50,[8],> 50 µM
same,CC50 at 24 h,[9],189 µM
same,Activity,Pseudomonas aeruginosa [10],Active
same,IC50,Pseudomonas aeruginosa [1],> 50 µM
same,IC50,[11],43.5 µM
same,Activity,[12],Toxic
same,MIC,Pseudomonas aeruginosa [2],≥ 512 µM
same,Activity,Pseudomonas aeruginosa [5],Active
CCn1c(C)cc(=O)c(O)c1CNCCCCCCCCNc1ccnc2ccccc12,IC50,Pseudomonas aeruginosa [1],> 50 µM
same,MIC,Pseudomonas aeruginosa [2],≥ 512 µM
COCCn1c(C)cc(=O)c(O)c1CNCCCCCCCCNc1ccnc2ccccc12,IC50,Pseudomonas aeruginosa [1],> 50 µM
same,MIC,Pseudomonas aeruginosa [2],≥ 512 µM
Cc1cc(=O)c(O)c(CNCCCCCCCCNc2ccnc3cc(Cl)ccc23)n1C,IC50,[6],23.7 µM
same,IC50,[8],> 50 µM
same,Activity,Pseudomonas aeruginosa [13],Dose-Dependent Effect
same,IC50,Pseudomonas aeruginosa [1],5.4 µM
same,IC50,[11],30.9 µM
same,MIC,Pseudomonas aeruginosa [2],≥ 512 µM
same,Activity,Pseudomonas aeruginosa [14],inactive
CCCCCn1c(C)cc(=O)c(O)c1CNCCCCCCCCNc1ccnc2ccccc12,IC50,Pseudomonas aeruginosa [1],23.6 µM
same,MIC,Pseudomonas aeruginosa [2],≥ 512 µM
Cc1cc(=O)c(OCc2ccccc2)c(CNCCCCCCCCNc2ccnc3cc(Cl)ccc23)[nH]1,IC50,Pseudomonas aeruginosa [1],> 50 µM
same,MIC,Pseudomonas aeruginosa [2],≥ 512 µM
Cc1cc(=O)c(O)c(CNCCCCCCCCNc2ccncc2)n1C,IC50,Pseudomonas aeruginosa [1],> 50 µM
same,MIC,Pseudomonas aeruginosa [2],≥ 512 µM
Cc1cc(=O)c(O)c(CNCCCCCCCCNc2ccnc3cc(F)ccc23)n1C,IC50,Pseudomonas aeruginosa [1],> 50 µM
same,MIC,Pseudomonas aeruginosa [2],≥ 512 µM
Cc1c(O)c(=O)ccn1C,pFe3+,[15],21.7
Cc1cc(=O)c(O)cn1CCCCCCCCNc1ccnc2ccccc12,IC50,Pseudomonas aeruginosa [1],> 50 µM
same,MIC,Pseudomonas aeruginosa [2],≥ 512 µM
Cc1cc(=O)c(OCc2ccccc2)c(C(=O)NCCCCCCCCNc2ccnc3cc(Cl)ccc23)n1C,Activity,Pseudomonas aeruginosa [10],Active
same,IC50,Pseudomonas aeruginosa [1],> 50 µM
same,MIC,Pseudomonas aeruginosa [2],≥ 512 µM
same,Activity,Pseudomonas aeruginosa [5],Active
CCCCCn1c(C)cc(=O)c(O)c1CNCCCCCCCCNc1ccnc2cc(Cl)ccc12,IC50,Pseudomonas aeruginosa [1],> 50 µM
same,MIC,Pseudomonas aeruginosa [2],≥ 512 µM
O=c1cc(CNCCCCCCCCNc2ccnc3cc(Cl)ccc23)n(O)cc1O,IC50,Pseudomonas aeruginosa [1],> 50 µM
same,MIC,Pseudomonas aeruginosa [2],≥ 512 µM
Cc1cc(=O)c(O)c(CNCCCCCCCNc2ccnc3ccccc23)n1C,IC50,Pseudomonas aeruginosa [1],13.2 µM
same,MIC,Pseudomonas aeruginosa [2],≥ 512 µM
COc1ccc2c(NCCCCCCCCNC(=O)c3c(O)c(=O)cc(C)n3C)ccnc2c1,IC50,Pseudomonas aeruginosa [1],> 50 µM
same,MIC,Pseudomonas aeruginosa [2],≥ 512 µM
Cc1cc(=O)c(O)c(CNCCCCCCNc2ccnc3cc(Cl)ccc23)n1C,IC50,Pseudomonas aeruginosa [1],18.2 µM
same,MIC,Pseudomonas aeruginosa [2],≥ 512 µM
Cc1cc(=O)c(O)c(C(=O)NCCCCCCCCNc2ccnc3ccccc23)n1C,IC50,Pseudomonas aeruginosa [1],13 µM
same,MIC,Pseudomonas aeruginosa [2],≥ 512 µM
Cc1cc(=O)c(O)c(CNCCCCNc2ccnc3ccccc23)n1C,IC50,Pseudomonas aeruginosa [1],> 50 µM
same,MIC,Pseudomonas aeruginosa [2],≥ 512 µM
CCCn1c(C)cc(=O)c(O)c1CNCCCCCCCCNc1ccnc2ccccc12,IC50,Pseudomonas aeruginosa [1],> 50 µM
same,MIC,Pseudomonas aeruginosa [2],≥ 512 µM
Cc1cc(=O)c(O)c(CNCCCCCCCCCCNc2ccnc3cc(Cl)ccc23)n1C,IC50,Pseudomonas aeruginosa [1],> 50 µM
same,MIC,Pseudomonas aeruginosa [2],≥ 512 µM
